pIC50: −log10 of the molar value.
Molecular target: human-cGAS (h-cGAS) (Homo sapiens, UniProt Q8N884)
Test: hcGAS Kinase-Glo Assay
Format: biochemical
Conditions: 40 nM h-cGAS, 100 μM ATP, 100 μM GTP, 25 nM dsDNA, 3 h incubation, read-out: hcGAS potency IC50
Procedure: In some embodiments, the compounds of the instant disclosure may be tested for their human-cGAS (h-cGAS) inhibition activity using the methodology reported in Lama et al., “Development of human cGAS-specific small molecule inhibitors for repression of double stranded DNA (dsDNA)-triggered interferon expression”, Nature Communications 10, Article number: 2261 (2019), incorporated herein by reference. hcGAS Kinase-Glo Assay Compounds were tested for their human-cGAS (h-cGAS) inhibition activity using the methodology reported in Lama et al., “Development of human cGAS-specific small molecule inhibitors for repression of double stranded DNA (dsDNA)-triggered interferon expression”, Nature Communications 10. Article number: 2261 (2019), which is herein incorporated by reference in its entirety, with slight changes to some conditions as shown in Table B. The results of the assays, expressed in IC50 ranges are reported in Table C with the following designations: A represents an IC50 value <0.1 μM; B represents an IC50 value ≥0.1 μM and <0.5 μM; C represents an IC50 value ≥0.5 μM and <1.0 μM; D represents an IC50 value ≥1.0 μM. [table]

Chain of human-cGAS (h-cGAS) (Q8N884 whole entry): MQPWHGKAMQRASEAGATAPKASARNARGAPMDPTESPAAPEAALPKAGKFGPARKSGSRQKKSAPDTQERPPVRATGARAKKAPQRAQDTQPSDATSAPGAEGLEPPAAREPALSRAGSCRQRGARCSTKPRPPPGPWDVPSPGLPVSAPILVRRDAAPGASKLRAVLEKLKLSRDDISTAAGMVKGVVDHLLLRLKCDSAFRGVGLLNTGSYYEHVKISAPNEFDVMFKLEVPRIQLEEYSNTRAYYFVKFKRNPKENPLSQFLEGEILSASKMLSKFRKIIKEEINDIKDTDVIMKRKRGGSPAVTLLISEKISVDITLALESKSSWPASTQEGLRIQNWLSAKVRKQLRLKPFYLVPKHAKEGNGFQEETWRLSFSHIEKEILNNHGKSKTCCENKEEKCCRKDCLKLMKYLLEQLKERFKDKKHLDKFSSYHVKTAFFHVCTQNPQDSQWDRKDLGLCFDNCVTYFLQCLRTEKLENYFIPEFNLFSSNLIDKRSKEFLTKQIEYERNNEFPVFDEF

| Compound | pIC50 |
| --- | --- |
| Cc1nnc(NC(=O)c2onc3ccccc23)s1 [Compound 81, N-(5-methyl-1,3,4-thiadiazol-2-yl)benzo[c]isoxazole-3-carboxamide] | ≤ 6.00 |
| CSc1nnc(NC(=O)c2cc(C(C)C)no2)s1 [Compound 82, 3-isopropyl-N-(5-(methylthio)-1,3,4-thiadiazol-2-yl)isoxazole-5-carboxamide] | 6.00 to 6.30 |
| CSc1nnc(NC(=O)c2cc(-c3cccc(OC(F)(F)F)c3)no2)s1 [Compound 83, N-(5-(methylthio)-1,3,4-thiadiazol-2-yl)-3-(3-(trifluoromethoxy)phenyl)isoxazole-5-carboxamide] | ≤ 6.00 |
| CSc1nnc(NC(=O)c2cc(C3CCCCC3)no2)s1 [Compound 84, 3-cyclohexyl-N-(5-(methylthio)-1,3,4-thiadiazol-2-yl)isoxazole-5-carboxamide] | 6.30 to 7.00 |
| CSc1nnc(NC(=O)c2cc(C3CCCC3)no2)s1 [Compound 85, 3-cyclopentyl-N-(5-(methylthio)-1,3,4-thiadiazol-2-yl)isoxazole-5-carboxamide] | 6.00 to 6.30 |
| CSc1nnc(NC(=O)c2cc(C3CCC3)no2)s1 [Compound 86, 3-cyclobutyl-N-(5-(methylthio)-1,3,4-thiadiazol-2-yl)isoxazole-5-carboxamide] | 6.00 to 6.30 |
| CN(C)C(=O)c1cc(C(=O)Nc2nnc(-c3ccccc3Cl)s2)on1 [Compound 87, N5-(5-(2-chlorophenyl)-1,3,4-thiadiazol-2-yl)-N3,N3-dimethylisoxazole-3,5-dicarboxamide] | 6.00 to 6.30 |
| COCCNC(=O)c1cc(C(=O)Nc2nnc(-c3ccccc3Cl)s2)on1 [Compound 88, N5-(5-(2-chlorophenyl)-1,3,4-thiadiazol-2-yl)-N3-(2-methoxyethyl)isoxazole-3,5-dicarboxamide] | 6.00 to 6.30 |
| CNC(=O)c1cc(C(=O)Nc2nnc(-c3ccccc3Cl)s2)on1 [Compound 89, N5-(5-(2-chlorophenyl)-1,3,4-thiadiazol-2-yl)-N3-methylisoxazole-3,5-dicarboxamide] | 6.00 to 6.30 |
| O=C(NO)c1cc(C(=O)Nc2nnc(-c3ccccc3Cl)s2)on1 [Compound 90, N5-(5-(2-chlorophenyl)-1,3,4-thiadiazol-2-yl)-N3-hydroxyisoxazole-3,5-dicarboxamide] | 6.30 to 7.00 |
| CONC(=O)c1cc(C(=O)Nc2nnc(-c3ccccc3Cl)s2)on1 [Compound 91, N5-(5-(2-chlorophenyl)-1,3,4-thiadiazol-2-yl)-N3-methoxyisoxazole-3,5-dicarboxamide] | > 7.00 |
| O=C(Nc1ccccc1)c1cc(C(=O)Nc2nnc(-c3ccccc3Cl)s2)on1 [Compound 92, N5-(5-(2-chlorophenyl)-1,3,4-thiadiazol-2-yl)-N3-phenylisoxazole-3,5-dicarboxamide] | 6.30 to 7.00 |
| Cc1nnc(NC(=O)c2onc3c2ccc2cccnc23)s1 [Compound 93, N-(5-methyl-1,3,4-thiadiazol-2-yl)isoxazolo[4,3-h]quinoline-3-carboxamide] | 6.00 to 6.30 |
| CSc1nnc(NC(=O)c2onc3c2ccc2cccnc23)s1 [Compound 94, N-(5-(methylthio)-1,3,4-thiadiazol-2-yl)isoxazolo[4,3-h]quinoline-3-carboxamide] | 6.30 to 7.00 |
| CSc1nnc(NC(=O)c2cc(-c3ccc(Cl)s3)on2)s1 [Compound 95, 5-(5-chlorothiophen-2-yl)-N-(5-(methylthio)-1,3,4-thiadiazol-2-yl)isoxazole-3-carboxamide] | 6.00 to 6.30 |
| CSc1nnc(NC(=O)c2cncc(-c3cccs3)c2)s1 [Compound 96, N-(5-(methylthio)-1,3,4-thiadiazol-2-yl)-5-(thiophen-2-yl)-nicotinamide] | 6.00 to 6.30 |
| O=C(Nc1ccccc1Cl)c1nnn2ccc(=O)[nH]c12 [Compound 97, N-(2-chlorophenyl)-5-oxo-4H-[1,2,3]triazolo[1,5-a]pyrimidine-3-carboxamide] | ≤ 6.00 |
| CSc1nnc(NC(=O)c2nnc3n2CCN(C(=O)OC(C)(C)C)C3)s1 [Compound 98, tert-butyl 3-{[5-(methylsulfanyl)-1,3,4-thiadiazol-2-yl]carbamoyl}-5H,6H,8H-[1,2,4]triazolo[4,3-a]pyrazine-7-carboxylate] | ≤ 6.00 |
| CSc1nnc(NC(=O)c2noc(N3CCCC3c3ccccc3)n2)s1 (centres unmarked) [Compound 99, N-(5-(methylthio)-1,3,4-thiadiazol-2-yl)-5-(2-phenylpyrrolidin-1-yl)-1,2,4-oxadiazole-3-carboxamide] | ≤ 6.00 |

| Compound | pIC50 |
| --- | --- |
| CSc1nnc(NC(=O)c2noc(N3CCCC(C)(C)C3)n2)s1 [Compound 100, 5-(3,3-dimethylpiperidin-1-yl)-N-(5-(methylthio)-1,3,4-thiadiazol-2-yl)-1,2,4-oxadiazole-3-carboxamide] | ≤ 6.00 |
| CSc1nnc(NC(=O)c2noc(N3CCCCC3)n2)s1 [Compound 101, N-[5-(methylthio)-1,3,4-thiadiazol-2-yl]-5-(piperidin-1-yl)-1,2,4-oxadiazole-3-carboxamide] | ≤ 6.00 |
| CSc1nnc(NC(=O)c2noc(N3CCC(C)(C)CC3)n2)s1 [Compound 102, 5-(4,4-dimethylpiperidin-1-yl)-N-(5-(methylthio)-1,3,4-thiadiazol-2-yl)-1,2,4-oxadiazole-3-carboxamide] | ≤ 6.00 |
| CSc1nnc(NC(=O)c2noc(N3CCCCC3c3ccccc3)n2)s1 (centres unmarked) [Compound 103, N-(5-(methylthio)-1,3,4-thiadiazol-2-yl)-5-(2-phenylpiperidin-1-yl)-1,2,4-oxadiazole-3-carboxamide] | 6.00 to 6.30 |
| CSc1nnc(NC(=O)c2noc(-c3ccccn3)n2)s1 [Compound 104, N-[5-(methylsulfanyl)-1,3,4-thiadiazol-2-yl]-5-(132yridine-2-yl)-1,2,4-oxadiazole-3-carboxamide] | 6.00 to 6.30 |
| CSc1nnc(NC(=O)c2noc(-c3cccnc3)n2)s1 [Compound 105, N-[5-(methylsulfanyl)-1,3,4-thiadiazol-2-yl]-5-(pyridin-3-yl)-1,2,4-oxadiazole-3-carboxamide] | ≤ 6.00 |
| CSc1nnc(NC(=O)c2nnc(-c3ccccn3)o2)s1 [Compound 106, N-(5-(methylthio)-1,3,4-thiadiazol-2-yl)-5-(pyridin-2-yl)-1,3,4-oxadiazole-2-carboxamide] | 6.00 to 6.30 |
| CSc1nnc(NC(=O)c2nnc(-c3cccnc3)o2)s1 [Compound 107, N-[5-(methylsulfanyl)-1,3,4-thiadiazol-2-yl]-5-(pyridin-3-yl)-1,3,4-oxadiazole-2-carboxamide] | 6.00 to 6.30 |
| CSc1nnc(NC(=O)c2nnc(N3CCCCC3)o2)s1 [Compound 108, N-(5-(methylthio)-1,3,4-thiadiazol-2-yl)-5-(piperidin-1-yl)-1,3,4-oxadiazole-2-carboxamide] | 6.00 to 6.30 |
| CSc1nnc(NC(=O)c2nnc(N3CCCC(O)C3)o2)s1 (centres unmarked) [Compound 109, 5-(3-hydroxypiperidin-1-yl)-N-(5-(methylthio)-1,3,4-thiadiazol-2-yl)-1,3,4-oxadiazole-2-carboxamide] | ≤ 6.00 |
| CSc1nnc(NC(=O)c2nnc(N3CCCC(C(=O)O)C3)o2)s1 (centres unmarked) [Compound 110, 1-(5-{[5-(methylsulfanyl)-1,3,4-thiadiazol-2-yl]carbamoyl}-1,3,4-oxadiazol-2-yl)piperidine-3-carboxylic acid] | 6.00 to 6.30 |
| CSc1nnc(NC(=O)c2nnc(N3CCCC3C(=O)O)o2)s1 (centres unmarked) [Compound 111, 1-(5-{[5-(methylsulfanyl)-1,3,4-thiadiazol-2-yl]carbamoyl}-1,3,4-oxadiazol-2-yl)pyrrolidine-2-carboxylic acid] | 6.30 to 7.00 |
| CSc1nnc(NC(=O)c2nnc(N3CCC(C(=O)O)C3)o2)s1 (centres unmarked) [Compound 112, 1-(5-{[5-(methylsulfanyl)-1,3,4-thiadiazol-2-yl]carbamoyl}-1,3,4-oxadiazol-2-yl)pyrrolidine-3-carboxylic acid] | 6.30 to 7.00 |
| CSc1nnc(NC(=O)c2nnc(N(C)Cc3ccccc3)o2)s1 [Compound 113, 5-[benzyl(methyl)amino]-N-[5-(methylsulfanyl)-1,3,4-thiadiazol-2-yl]-1,3,4-oxadiazole-2-carboxamide] | 6.00 to 6.30 |
| CSc1nnc(NC(=O)c2nnc(N(C)C(C)c3ccccc3)o2)s1 (centres unmarked) [Compound 114, 5-[methyl(1-phenylethyl)amino]-N-[5-(methylsulfanyl)-1,3,4-thiadiazol-2-yl]-1,3,4-oxadiazole-2-carboxamide] | 6.00 to 6.30 |
| CSc1nnc(NC(=O)c2nnc(N3CCCC3CO)o2)s1 (centres unmarked) [Compound 115, 5-[2-(hydroxymethyl)pyrrolidin-1-yl]-N-[5-(methylsulfanyl)-1,3,4-thiadiazol-2-yl]-1,3,4-oxadiazole-2-carboxamide] | 6.00 to 6.30 |
| CSc1nnc(NC(=O)c2nnc(N3CCC(O)C3)o2)s1 (centres unmarked) [Compound 116, 5-(3-hydroxypyrrolidin-1-yl)-N-[5-(methylsulfanyl)-1,3,4-thiadiazol-2-yl]-1,3,4-oxadiazole-2-carboxamide] | 6.00 to 6.30 |
| O=C(Nc1nnc(-c2ccccc2Cl)s1)c1nnc(N2CCC[C@@H]2c2ccccn2)o1 [Compound 117, (R)-N-(5-(2-chlorophenyl)-1,3,4-thiadiazol-2-yl)-5-(2-(pyridin-2-yl)pyrrolidin-1-yl)-1,3,4-oxadiazole-2-carboxamide] | 6.30 to 7.00 |
| O=C(Nc1nnc(-c2ccccc2Cl)s1)c1nnc(N2CCC[C@@H]2c2ccccc2)o1 [Compound 118, (R)-N-(5-(2-chlorophenyl)-1,3,4-thiadiazol-2-yl)-5-(2-phenylpyrrolidin-1-yl)-1,3,4-oxadiazole-2-carboxamide] | 6.30 to 7.00 |

Source: patent publication US20250002487A1, “HETEROCYCLIC COMPOUNDS AND USES THEREOF” (Ventus Therapeutics U.S., Inc., priority 2021, published 2025)
